Numbered stars: 1 amine (or outer) side, 2 acyl side, 3 side chain; on linkers, the order of the positions; unused ones are H or OH. Square brackets hold non-standard residues; d marks the D form. Peptide text beside a SMILES is read from it. * marks the point of attachment. Phe(ψ(S)CH(OH)CH2N)Pro = O=C([C@@H]1CCCN1C[C@H](O)[C@H](Cc1ccccc1)N[*:1])[*:2]; X1 = CC(C)CC(C[C@H](O)[C@H](CC1CCCCC1)N[*:1])C(=O)[*:2]; Nle = CCCC[C@H](N)C(=O)O; Orn = NCCC[C@H](N)C(=O)O; Boc = CC(C)(C)OC(=O)*
Assays:
[1] = biological target: Human immunodeficiency virus type 1 protease (Human immunodeficiency virus 1) (UniProt Q72874); assay: Affinity for HIV Protease
[2] = biological target: T1, Thermolysin (Bacillus thermoproteolyticus) (UniProt P00800); assay: Binding affinity against Thermolysin
T1 sequence (whole entry): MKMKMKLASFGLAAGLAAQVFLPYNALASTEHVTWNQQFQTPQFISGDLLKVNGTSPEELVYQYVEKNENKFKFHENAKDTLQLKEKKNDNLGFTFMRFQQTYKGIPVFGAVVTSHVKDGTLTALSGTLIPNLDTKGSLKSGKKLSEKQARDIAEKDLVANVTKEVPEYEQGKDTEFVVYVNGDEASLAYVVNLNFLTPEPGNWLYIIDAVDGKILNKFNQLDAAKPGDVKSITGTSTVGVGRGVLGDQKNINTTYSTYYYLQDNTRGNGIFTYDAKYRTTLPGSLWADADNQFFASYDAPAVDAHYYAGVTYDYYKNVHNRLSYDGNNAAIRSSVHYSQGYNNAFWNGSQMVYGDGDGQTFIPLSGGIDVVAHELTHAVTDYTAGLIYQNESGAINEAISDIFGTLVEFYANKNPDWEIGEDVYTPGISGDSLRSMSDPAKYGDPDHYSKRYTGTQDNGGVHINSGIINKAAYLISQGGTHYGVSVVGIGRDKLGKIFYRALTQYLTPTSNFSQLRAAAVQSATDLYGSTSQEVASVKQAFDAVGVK

[3] = tested on: Purine nucleoside phosphorylase; assay: Binding affinity against Purine Nucleoside Phosphorylase
[4] = biological target: Prothrombin (Homo sapiens) (UniProt P00734); assay: Binding affinity against thrombin
[5] = Binding affinity against Glucose binding protein
[6] = Binding affinity against Neuraminidase
[7] = Binding affinity against Endothiapepsin
[8] = biological target: Serine protease 1 (Homo sapiens) (UniProt P07477); assay: Binding affinity against trypsin
Sequence of Serine protease 1 (Homo sapiens) (P07477 whole entry): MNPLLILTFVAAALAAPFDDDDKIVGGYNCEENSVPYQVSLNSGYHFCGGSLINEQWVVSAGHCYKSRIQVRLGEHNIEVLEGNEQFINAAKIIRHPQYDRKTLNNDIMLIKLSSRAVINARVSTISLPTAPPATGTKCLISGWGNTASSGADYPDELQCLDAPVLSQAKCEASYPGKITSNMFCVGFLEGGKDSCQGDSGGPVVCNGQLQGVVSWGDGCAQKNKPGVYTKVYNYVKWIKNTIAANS

[9] = biological target: T2, Trypsin II (Bos taurus) (UniProt Q29463); assay: log Kd (Binding affinity against specified protein) value of the compound
T2 sequence (whole entry): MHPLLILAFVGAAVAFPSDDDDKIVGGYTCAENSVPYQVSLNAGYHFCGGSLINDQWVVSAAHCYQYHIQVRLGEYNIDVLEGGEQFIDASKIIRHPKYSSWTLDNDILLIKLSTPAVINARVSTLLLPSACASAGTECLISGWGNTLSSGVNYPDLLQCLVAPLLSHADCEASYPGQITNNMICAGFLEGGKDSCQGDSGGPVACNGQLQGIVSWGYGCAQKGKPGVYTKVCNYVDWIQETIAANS

[10] = Binding affinity against Arabinose binding protein of the compound
[11] = Binding affinity against Penicillopepsin
[12] = Binding affinity against Glucoamylase
[13] = biological target: T3, Mast cell carboxypeptidase A (Homo sapiens) (UniProt P15088); assay: Binding affinity against Carboxypeptidase A
T3 sequence (whole entry): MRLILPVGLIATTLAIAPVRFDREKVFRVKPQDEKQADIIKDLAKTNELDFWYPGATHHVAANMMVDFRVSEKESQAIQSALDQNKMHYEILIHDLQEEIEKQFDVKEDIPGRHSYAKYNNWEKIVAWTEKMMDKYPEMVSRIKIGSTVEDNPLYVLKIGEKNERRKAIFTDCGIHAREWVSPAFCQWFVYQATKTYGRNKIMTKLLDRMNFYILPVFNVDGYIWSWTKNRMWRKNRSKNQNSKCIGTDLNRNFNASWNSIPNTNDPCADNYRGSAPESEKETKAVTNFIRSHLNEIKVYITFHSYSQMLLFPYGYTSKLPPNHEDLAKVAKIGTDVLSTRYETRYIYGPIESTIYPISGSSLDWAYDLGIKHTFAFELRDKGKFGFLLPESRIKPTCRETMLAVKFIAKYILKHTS

[14] = Binding affinity against TP isomerase
[15] = Binding affinity against FK506 binding protein
[16] = Binding affinity against Histidine-binding protein
[17] = Binding affinity against immunoglobulin
[18] = Binding affinity against Retinol-binding protein
[19] = Binding affinity against Xylose isomerase
[20] = Binding affinity against enolase
[21] = biological target: T4, Fatty acid-binding protein, intestinal (Homo sapiens) (UniProt P12104); assay: Binding affinity against Fatty acid-binding protein
T4 sequence (whole entry): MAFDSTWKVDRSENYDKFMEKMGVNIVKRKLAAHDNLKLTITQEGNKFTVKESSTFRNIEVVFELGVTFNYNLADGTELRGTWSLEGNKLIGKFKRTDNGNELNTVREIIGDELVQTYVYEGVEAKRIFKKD

## O=C1N(Cc2ccc3ccccc3c2)[C@H](Cc2ccccc2)[C@H](O)[C@@H](O)[C@@H](Cc2ccccc2)N1Cc1ccc2ccccc2c1
[1]
  Log Kd: -9.52

## CC(C)[C@H](N)C(=O)N[C@@H](Cc1c[nH]c2ccccc12)C(=O)O (H-Val-Trp-OH)
[2]
  Log Kd: -5.91

## CC(C)C[C@H](NC(CCc1ccccc1)C(=O)O)C(=O)N[C@@H](Cc1c[nH]c2ccccc12)C(=O)O (stereo not given in full)
[2]
  Log Kd: -7.13

## O=P(O)(O)OP(=O)(O)OC[C@H]1O[C@@H](n2cnc3cncnc32)[C@H](O)[C@@H]1O
[3]
  Log Kd: -6.22

## CC1(C)SC(C(NC(=O)Cc2ccccc2)C(=O)NCc2ccccc2)NC1C(=O)NC(Cc1ccccc1)C(O)CC(=O)NCC1=NC2C=CC=CC2=N1 (stereo not given)
[1]
  Log Kd: -9.69

## NC(N)=NCCC[C@H](NC(=O)[C@@H]1CCCN1C(=O)C(N)Cc1ccccc1)C(=O)O (stereo in doubt)
[4]
  Log Kd: -6.24

## CC(C)C[C@H](NP(=O)(O)O[C@@H]1O[C@@H](C)[C@H](O)[C@@H](O)[C@H]1O)C(=O)N[C@@H](Cc1c[nH]c2ccccc12)C(=O)O
[2]
  Log Kd: -7.56

## CC1(C)SC(C(NC(=O)Cc2ccccc2)C(=O)NCc2ccccc2)NC1C(=O)NC(CO)Cc1ccccc1 (stereo not given)
[1]
  Log Kd: -8.1

## OC[C@H]1OC(O)[C@H](O)[C@@H](O)[C@@H]1O (stereo not given in full)
[5]
  Log Kd: -7.6

## CC(=O)N[C@H]1[C@H]([C@H](O)[C@H](O)CO)OC(C(=O)O)=C[C@@H]1O
[6]
  Log Kd: -5.31

## CC(C)[C@H](NC(=O)N(C)Cc1ccccn1)C(=O)N[C@@H](Cc1ccccc1)[C@@H](O)[C@H](O)[C@H](Cc1ccccc1)NC(=O)[C@@H](NC(=O)N(C)Cc1ccccn1)C(C)C
[1]
  Log Kd: -9.01

## CC[C@H](C)[C@H](NC(=O)[C@@H]1CCCN1C[C@H](O)[C@H](Cc1ccccc1)NC(=O)[C@H](CC(N)=O)NC(=O)[C@H](CC(C)C)NC(=O)[C@H](CO)NC(C)=O)C(=O)N[C@H](C(=O)OC)C(C)C (Ac-SLN[Phe(ψ(S)CH(OH)CH2N)Pro]IV-OMe)
[1]
  Log Kd: -9.63

## C[C@@H](O)[C@H](NC(=O)[C@@H]1CCCN1)C(=O)N[C@@H](CCC(=O)O)C(=O)N[C@H](CN[C@@H](Cc1ccccc1)C(=O)N[C@@H](CCCN=C(N)N)C(=O)N[C@@H](CCC(=O)O)C(=O)O)Cc1ccccc1
[7]
  Log Kd: -7.22

## N=C(N)c1ccccc1
[8]
  Log Kd: -4.74
[9]
  Log Kd: -1.83

## C[C@H]1OC(O)[C@H](O)[C@@H](O)[C@H]1O (stereo not given in full)
[10]
  Log Kd: -5.43

## CCCC[C@H](NC(=O)[C@H](CCCC)NC(=O)[C@@H](NC(=O)[C@@H](NC(C)=O)[C@@H](C)O)[C@@H](C)CC)C(=O)N[C@@H](CCCN)C(=O)N[C@@H](CCCN=C(N)N)C(N)=O (Ac-TI[Nle][Nle][Orn]R-NH2)
[1]
  Log Kd: -6.11

## CCOC(=O)CC(OP(=O)(O)O)C(CC(C)C)NC(=O)[C@@H](NC(=O)[C@@H](NC(=O)CC(C)C)C(C)C)C(C)C (stereo not given in full)
[11]
  Log Kd: -7.66

## OC[C@H]1NC[C@H](O)[C@@H](O)[C@@H]1O
[12]
  Log Kd: -4.02

## CCOC(=O)CC(O)C(CC(C)C)NC(=O)[C@@H](NC(=O)[C@@H](NC(=O)CC(C)C)C(C)C)C(C)C (stereo not given in full)
[11]
  Log Kd: -7.71

## NCCCC[C@H](NC(=O)CN)C(=O)O (H-Gly-Lys-OH)
[13]
  Log Kd: -3.89

## O=C(O)COP(=O)(O)O
[14]
  Log Kd: -4.82

## CC[C@H](C)[C@H](NC(=O)[C@@H](NC[C@H](CC(C)C)NC(=O)[C@H](Cc1c[nH]cn1)NC(=O)[C@H](Cc1ccccc1)NC(=O)[C@@H]1CCCN1C(=O)[C@H](Cc1c[nH]cn1)NC(=O)[C@@H]1CCCN1)C(C)C)C(=O)N[C@@H](Cc1c[nH]cn1)C(=O)N[C@@H](CCCCN)C(=O)O
[7]
  Log Kd: -6.8

## C=CC[C@@H]1/C=C(\C)C[C@H](C)C[C@H](OC)[C@H]2O[C@@](O)(C(=O)C(=O)N3CCCC[C@H]3C(=O)O[C@H](/C(C)=C/[C@@H]3CC[C@@H](O)[C@H](OC)C3)[C@H](C)[C@@H](O)CC1=O)[C@H](C)C[C@@H]2OC
[15]
  Log Kd: -9.7

## N[C@@H](Cc1c[nH]cn1)C(=O)O
[16]
  Log Kd: -7.31

## CC(C)[C@H](NC(=O)N(C)Cc1ccccn1)C(=O)N[C@@H](Cc1ccccc1)[C@H](O)[C@H](O)[C@H](Cc1ccccc1)NC(=O)[C@@H](NC(=O)N(C)Cc1ccccn1)C(C)C
[1]
  Log Kd: -10.1

## CC(C)[C@H](NC(=O)N(C)Cc1ccccn1)C(=O)N[C@@H](Cc1ccccc1)C[C@@H](O)[C@H](Cc1ccccc1)NC(=O)[C@@H](NC(=O)N(C)Cc1ccccn1)C(C)C
[1]
  Log Kd: -10.5

## CC(C)C[C@H](NC(=O)C[C@H](O)[C@H](CC1CCCCC1)NC(=O)CC[C@H](O)[C@H](Cc1ccccc1)NC(=O)OC(C)(C)C)C(=O)NCc1cccc(CN)c1
[7]
  Log Kd: -4.8

## N#Cc1ccc(NC(=N)NC(c2ccccc2)c2ccccc2)cc1
[17]
  Log Kd: -7.28

## NCCCCc1ccccc1
[8]
  Log Kd: -1.7

## CC(C)C[C@H](N)C(=O)NO
[2]
  Log Kd: -3.72

## CC(C)CC(C[C@H](O)[C@H](CC1CCCCC1)NC(=O)[C@H](Cc1c[nH]cn1)NC(=O)[C@H](Cc1ccccc1)NC(=O)OC(C)(C)C)C(=O)N[C@@H](CCCCN)C(=O)N[C@@H](Cc1ccccc1)C(=O)O (stereo not given in full) (Boc-FH[X1]KF-OH)
[7]
  Log Kd: -7.11

## CC=O
[1]
  Log Kd: -8.41

## CC1=C(/C=C/C(C)=C/C=C/C(C)=C/CO)C(C)(C)CCC1
[18]
  Log Kd: -6.72

## O=C(N[C@H]1c2ccccc2C[C@H]1O)[C@H](Cc1ccccc1)CC(O)C[C@@H](Cc1ccccc1)C(=O)N[C@H]1c2ccccc2C[C@H]1O
[1]
  Log Kd: -9.15

## O=P(O)(O)OP(=O)(O)OP(=O)(O)OP(=O)(O)OP(=O)(O)OC[C@H]1O[C@@H](n2cnc3cncnc32)[C@H](O)[C@@H]1O
[3]
  Log Kd: -5.96

## CC(C)CN(C[C@@H](O)[C@H](Cc1ccccc1)NC(=O)O[C@H]1CCOC1)S(=O)(=O)c1ccc(N)cc1
[1]
  Log Kd: -9.23

## OC[C@@H](O)[C@H](O)[C@@H](O)CO
[19]
  Log Kd: -5.83

## CC(C)[C@H](NC(=O)N(C)Cc1ccccn1)C(=O)N[C@@H](Cc1ccccc1)C(O)C(O)[C@H](Cc1ccccc1)NC(=O)[C@@H](NC(=O)N(C)Cc1ccccn1)C(C)C (single isomer, unassigned)
[1]
  Log Kd: -10.1

## O=[N+]([O-])Nc1ccccc1
[2]
  Log Kd: -6.37

## CCC(C)CNC(=O)C(CC(C)C)CC(O)C(CC1CCCCC1)NC(=O)C(Cc1c[nH]cn1)NC(=O)C(Cc1cccc2ccccc12)Cc1cccc2ccccc12 (stereo not given)
[7]
  Log Kd: -6.63

## CC[C@H](C)[C@@H](NC(=O)[C@@H](C[C@H](O)[C@H](CC(C)C)NC(=O)[C@H](Cc1c[nH]cn1)NC(=O)[C@H](Cc1ccccc1)NC(=O)[C@@H]1CCCN1C(=O)[C@@H](N)Cc1c[nH]cn1)C(C)C)C(=O)N[C@@H](Cc1c[nH]cn1)C(=O)O
[7]
  Log Kd: -9.02

## OC[C@H]1O[C@@H](O)[C@H](O)[C@@H](O)[C@H]1O
[10]
  Log Kd: -6.65

## O=C(CP(=O)(O)O)NO
[20]
  Log Kd: -10.8

## CC(C)C[C@H](NP(=O)(O)O)C(N)=O
[2]
  Log Kd: -5.89

## CCCCCCCCCCCCCCCC(=O)O
[21]
  Log Kd: -5.43

## CC(C)N(C[C@H](O)[C@H](CC1CCCCC1)NC(=O)[C@H](Cc1c[nH]cn1)NC(=O)[C@H](Cc1ccccc1)NC(=O)OC(C)(C)C)C(=O)N[C@@H](CCCCN)C(=O)N[C@@H](Cc1ccccc1)C(=O)O
[7]
  Log Kd: -6.58

## O=P(O)(O)OP(=O)(O)OP(=O)(O)OP(=O)(O)OC[C@H]1O[C@@H](n2cnc3cncnc32)[C@H](O)[C@@H]1O
[3]
  Log Kd: -5.85

## COC(=O)[C@@H](NC(=O)[C@@H](NC(=O)[C@H](C)N1CCC([C@H](C)NC(=O)[C@H](C)N)=C[C@@H](Cc2ccccc2)C1)C(C)C)C(C)C
[1]
  Log Kd: -6.37

## OC1OC[C@H](O)[C@H](O)[C@H]1O (stereo not given in full)
[10]
  Log Kd: -7.03

— ChEMBL document CHEMBL1135481, “SMall Molecule Growth 2001 (SMoG2001): an improved knowledge-based scoring function for protein-ligand interactions” (J Med Chem, 2002)
